Here are results for one substance from patent US20080096208A1, “BIOMARKERS FOR ASSESSING RESPONSE TO C-MET TREATMENT” (priority 2006, published 2008).

Test [1] relates to PC-3 prostate carcinoma cells. Briefly: Taqman real-time PCR of marker mRNA levels in HGF-stimulated PC-3 cells. Format: cell-based. An excerpt:
In order to identify biomarkers for the HGF response and potential inhibition of this response by small molecule HGF receptor (c-met) inhibitors, a micro array analysis of PC-3 cells stimulated by HGF over a time course of 1 hr to 2 days was used. TAQMAN was employed to examine mRNA levels of VEGF, CD44, Fibronectin, and MMP-1, each of which has been shown by others to be induced by HGF. Briefly, RNA is isolated by lysis of cultured cells or homogenization of tumor tissue in a guanidine solution, Trireagent from Molecular Research Center, Inc. The RNA is purified by a Qiagen column methodology under conditions recommended by the manufacturer and DNAse treated. Specific levels of mRNAs for the indicated genes are determined by Real-Time PCR, Taqman analysis using probes and primers specific for the genes examined and purchased from Applied Biosystems and the SDS2.1 quantitation software. Quantitation is performed by comparison of the cycle number where the sample crosses a threshold value vs a standard curve made of a pool of the RNA samples. Normalization is performed by comparing the amount of specific mRNA to that of 18S RNA or GAPDH mRNA. […] This response was then evaluated upon administration of the c-met inhibitor, 3DP-669366. […] The kinetics of the induction and the amplitude of the mRNA levels differ between the cell lines examined. The micro-array analysis identified LDL Receptor 1 (LDL-R1) as another protein that is induced by HGF and whose level of expression is diminished by treatment of cells with a HGF receptor inhibitor. This analysis was then evaluated upon administration of the acylhydrazone series of c-met inhibitors, JNJ-28823184 and JNJ-38429274. In in vivo tumor xenografts, the biomarkers identified by examination of cell culture responses to c-met inhibitors are also modulated in the in vivo setting. In a U87MG tumor xenograft in nude mice, a decrease in the mRNA levels of CD44, VEGF, LDLR1, and Osteopontin was observed.

The next test relates to PC-3 cells. Kind of test: Micro array analysis of PC-3 cells stimulated by HGF. Format: cell-based. The source says: In order to identify biomarkers for the HGF response and potential inhibition of this response by small molecule HGF receptor (c-met) inhibitors, a micro array analysis of PC-3 cells stimulated by HGF over a time course of 1 hr to 2 days was used. TAQMAN was employed to examine mRNA levels of VEGF, CD44, Fibronectin, and MMP-1, each of which has been shown by others to be induced by HGF. Briefly, RNA is isolated by lysis of cultured cells or homogenization of tumor tissue in a guanidine solution, Trireagent from Molecular Research Center, Inc. The RNA is purified by a Qiagen column methodology under conditions recommended by the manufacturer and DNAse treated. Specific levels of mRNAs for the indicated genes are determined by Real-Time PCR, Taqman analysis using probes and primers specific for the genes examined and purchased from Applied Biosystems and the SDS2.1 quantitation software. Quantitation is performed by comparison of the cycle number where the sample crosses a threshold value vs a standard curve made of a pool of the RNA samples. Normalization is performed by comparing the amount of specific mRNA to that of 18S RNA or GAPDH mRNA. […] This response was then evaluated upon administration of the c-met inhibitor, 3DP-669366. […] This analysis was then evaluated upon administration of the acylhydrazone series of c-met inhibitors, JNJ-28823184 and JNJ-38429274. […]

The mark [2] stands for this setting: between 8 and 48 hours following HGF addition, p<0.01.

As for “HGF: hepatocyte growth factor (also known as scatter factor), ligand of the c-met receptor”, the “induction of Fibronectin mRNA by HGF” value in test [1] is recorded as “did not show a statistically significant induction”. Moreover, in test [1] (between 8 and 48 hours following HGF addition, p<0.001), the “induction of VEGF mRNA by HGF” value is listed as “statistically significant induction”. In test [1] (setting [2]), the “induction of CD44 mRNA by HGF” value is recorded as “statistically significant induction” and the “induction of MMP-1 mRNA by HGF” value is reported as “statistically significant induction”. The “induction of LDL Receptor 1 (LDL-R1) by HGF” value in the test on PC-3 cells is recorded as “induced”.
